The numbers were not newly measured in patent US20250295673A1, “TREATMENT OF BREAST CANCER” (priority 2024, published 2025), which cites them from elsewhere.

“Also recorded” adds a separate entry of the source.

Series [1] relates to FSH (Follicle Stimulating Hormone) and LH (Leutinizing Hormone) release. The conditions noted are these: nandrolone alone.
Series [2] deals with brain oxytocin. The conditions noted are these: topically applied vaginally.
Series [3] addresses T1, SHBG (Homo sapiens, UniProt P04278).
T1 sequence (P04278 30-402): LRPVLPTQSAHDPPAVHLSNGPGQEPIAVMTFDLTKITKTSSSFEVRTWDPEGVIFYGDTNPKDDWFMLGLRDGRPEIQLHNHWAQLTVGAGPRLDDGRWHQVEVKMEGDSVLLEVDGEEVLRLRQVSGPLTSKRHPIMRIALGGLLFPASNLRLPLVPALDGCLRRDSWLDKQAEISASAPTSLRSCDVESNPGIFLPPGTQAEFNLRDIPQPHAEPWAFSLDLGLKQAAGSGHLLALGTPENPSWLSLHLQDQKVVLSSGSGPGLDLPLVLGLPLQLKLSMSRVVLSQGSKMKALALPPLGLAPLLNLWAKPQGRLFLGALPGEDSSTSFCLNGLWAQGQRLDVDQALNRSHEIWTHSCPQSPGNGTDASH
The conditions noted are these: releases testosterone, nandrolone, oxandrolone from SHBG.

As for `C[C@]12CC[C@H]3[C@@H](CCC4=CC(=O)CC[C@@H]43)[C@@H]1CC[C@@H]2O` [nandrolone], the “effect on FSH and LH release from the pituitary” value in series [1] is “suppresses”.

Take `C[C@]12Cc3c[nH]nc3C[C@@H]1CC[C@@H]1[C@@H]2CC[C@@]2(C)[C@H]1CC[C@]2(C)O` [stanozolol]: the “effect on brain oxytocin” value in series [2] is “increases brain oxytocin; also recorded: raises a user's oxytocin levels”. Further, the “net increase of androgens by release from SHBG” value in series [3] is given as “four-fold”.
